Measurements: paper PMC11940764 (2025)

Tests used:
[1] = system: poly(A) (RNA, polymer) A; test: fluorescence titration, site-independent model; conditions: TE buffer (Tris-HCl 10 mM, EDTA 1 mM) pH 8.0; dye 1 µM; unit not given
[2] = system: poly(A)·poly(U) (RNA, polymer) A/U; test: fluorescence titration; CD (exciton-coupled ICD); conditions: fluorescence: TE buffer pH 8.0, dye 1 µM; CD: phosphate buffer 10 mM pH 7.5; no Kb given

Q: Which results are given for `COc1cc2c(/C=C3/Sc4ccccc4N3C)cc[n+](C)c2cc1OC`?
A: Kb [1]: 9.5 × 10^6; binding [2]: yes
